The subject of the first assay is TNFα. Kind of assay: Cot Monocyte TNFα Cell Based Assay. The settings on record: Homo sapiens, Monocyte, read-out: EC50 TNF, LPS-stimulated human monocytes, TNFα TR-FRET. In general terms: TR-FRET usually uses a lanthanide donor and a delayed reading to cut background.
`Cc1ncsc1[C@H](Nc1cc(C#N)c2ncc(C#N)c(NCC(C)(C)C)c2c1)c1cn(C2(C3CC3)CC2)nn1` [Example 903, (R)-6-(((1-([1,1′-bi(cyclopropan)]-1-yl)-1H-1,2,3-triazol-4-yl)(4-methylthiazol-5-yl)methyl)amino)-4-(neopentylamino)quinoline-3,8-dicarbonitrile]: the EC50 turned out to be 36 nM.

With `COc1ccc([C@H](Nc2cc(C#N)c3ncc(C#N)c(NCC(C)(C)C)c3c2)c2cn(C3(C(F)(F)F)CC3)nn2)cn1` [Example 905, (S)-6-(((6-methoxypyridin-3-yl)(1-(1-(trifluoromethyl)cyclopropyl)-1H-1,2,3-triazol-4-yl)methyl)amino)-4-(neopentylamino)quinoline-3,8-dicarbonitrile], the EC50 is 212 nM.

Take `COc1c(C(Nc2cc(C#N)c3ncc(C#N)c(NCC(C)(C)C)c3c2)c2ccc(F)nc2C)nnn1C` (stereo not drawn) [Example 908, 6-(((6-fluoro-2-methylpyridin-3-yl)(5-methoxy-1-methyl-1H-1,2,3-triazol-4-yl)methyl)amino)-4-(neopentyl-amino)quinoline-3,8-dicarbonitrile]: the EC50 worked out at 238 nM.

As to `CC(C)(C)CNc1c(C#N)cnc2c(Cl)cc(N[C@H](c3cn(C4(C(F)(F)F)CC4)nn3)c3cccc4c(Cl)nccc34)cc12` [Example 916, (S)-8-chloro-6-(((1-chloroisoquinolin-5-yl)(1-(1-(trifluoromethyl)cyclopropyl)-1H-1,2,3-triazol-4-yl)methyl)amino)-4-(neopentylamino)quinoline-3-carbonitrile], the half-maximal effective concentration (EC50) worked out at 269 nM.

As to `CC(C)(C)CNc1c(C#N)cnc2c(Cl)cc(N[C@H](c3nnn(C4(C(F)F)CC4)c3F)c3cccc4ncccc34)cc12` [Example 962, (S)-8-chloro-6-(((1-(1-(difluoromethyl)cyclopropyl)-5-fluoro-1H-1,2,3-triazol-4-yl)(quinolin-5-yl)methyl)amino)-4-(neopentylamino)quinoline-3-carbonitrile], the EC50 was determined as 135 nM.

With `COc1ccc([C@H](Nc2cc(Cl)c3ncc(C#N)c(NCC(C)(C)C)c3c2)c2nnn(C3(C(F)F)CC3)c2OC)c(C)n1` [Example 966, (S)-8-chloro-6-(((1-(1-(difluoromethyl)cyclopropyl)-5-methoxy-1H-1,2,3-triazol-4-yl)(6-methoxy-2-methylpyridin-3-yl)methyl)amino)-4-(neopentylamino)quinoline-3-carbonitrile], the EC50 is 191 nM.

Turning to `COc1ccc(C(Nc2cc(Cl)c3ncc(C#N)c(NCC(C)(C)C)c3c2)c2nnn(C)c2OC)c(C)n1` (stereo not drawn) [Example 970, 8-chloro-6-(((5-methoxy-1-methyl-1H-1,2,3-triazol-4-yl)(6-methoxy-2-methylpyridin-3-yl)methyl)amino)-4-(neopentylamino)quinoline-3-carbonitrile], the EC50 came to 722 nM.

Staying with this assay, now noted: read-out: EC50 TNF; LPS-stimulated human monocytes, TNFα TR-FRET.
For the compound `COc1nccc2c([C@H](Nc3cc(Cl)c4ncc(C#N)c(NCC(C)(C)C(F)(F)F)c4c3)c3cn(C45CC(C4)C5)nn3)cccc12` [Example 928, (S)-6-(((1-(bicyclo[1.1.1]pentan-1-yl)-1H-1,2,3-triazol-4-yl)(1-methoxylsoquinolin-5-yl)methyl)amino)-8-chloro-4-((3,3,3-trifluoro-2,2-dimethylpropyl)amino)quinoline-3-carbonitrile], the half-maximal effective concentration (EC50) came out at 99 nM.

For `COc1nccc2c([C@H](Nc3cc(Cl)c4ncc(C#N)c(NCC(C)(C)C)c4c3)c3cn([C@@H](C)CF)nn3)cccc12` [Example 932, 8-chloro-6-(((S)-(1-((S)-1-fluoropropan-2-yl)-1H-1,2,3-triazol-4-yl)(1-methoxylsoquinolin-5-yl)methyl)amino)-4-(neopentylamino)quinoline-3-carbonitrile], the EC50 worked out at 205 nM.

Turning to `Cn1ccc2c([C@H](Nc3cc(Cl)c4ncc(C#N)c(NCC(C)(C)C)c4c3)c3nnn(C45CC(C4)C5)c3F)cccc2c1=O` [Example 961, (S)-6-(((1-(bicyclo[111]pentan-1-yl)-5-fluoro-1H-1,2,3-triazol-4-yl)(2-methyl-1-oxo-1,2-dihydroisoquinolin-5-yl)methyl)amino)-8-chloro-4-(neopentylamino)quinoline-3-carbonitrile], the EC50 came to 48 nM.

For `Cc1nc(F)ccc1[C@H](Nc1cc(Cl)c2ncc(C#N)c(NCC(C)(C)C)c2c1)c1nnn2c1OCCC2` [Example 985, (S)-8-chloro-6-(((6,7-dihydro-5H-[1,2,3]triazolo[5,l-b][1,3]oxazin-3-yl)(6-fluoro-2-methylpyridin-3-yl)methyl)amino)-4-(neopentylamino)quinoline-3-carbonitrile], the EC50 was 126 nM.

The target in another assay is Human Cot (Homo sapiens (Human), UniProt P41279). The assay can be described thus: High Throughput Cot Biochemical Assay. As to conditions: IC50 HTRF, Cot HTRF (TR-FRET) biochemical assay.
Human Cot, sequence (P41279 30-397): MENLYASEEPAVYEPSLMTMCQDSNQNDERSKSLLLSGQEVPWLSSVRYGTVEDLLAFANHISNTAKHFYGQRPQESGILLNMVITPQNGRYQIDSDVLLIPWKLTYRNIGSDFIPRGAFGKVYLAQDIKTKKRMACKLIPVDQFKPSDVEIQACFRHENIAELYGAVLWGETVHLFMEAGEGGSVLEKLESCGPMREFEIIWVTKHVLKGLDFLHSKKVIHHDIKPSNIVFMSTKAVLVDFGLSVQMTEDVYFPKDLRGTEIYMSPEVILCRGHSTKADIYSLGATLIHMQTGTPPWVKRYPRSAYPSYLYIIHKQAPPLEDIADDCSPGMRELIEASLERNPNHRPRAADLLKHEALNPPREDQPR
`CC(C)(C)CNc1c(C#N)cnc2c(C#N)cc(N[C@H](c3cn(C4(C(F)(F)F)CC4)nn3)c3cccc4ncsc34)cc12` [Example 66, (S)-6-((benzo[d]thiazol-7-yl(1-(1-(trifluoromethyl)cyclopropyl)-1H-1,2,3-triazol-4-yl)methyl)amino)-4-(neopentylamino)quinoline-3,8-dicarbonitrile] returned a 50% inhibitory concentration (IC50) of 3 nM.

`CC(C)(C)CNc1c(C#N)cnc2c(Cl)cc(N[C@H](c3cn(C4CC4)nn3)c3csc4c3CCN(C3COC3)C4)cc12` [Example 80, (S)-8-chloro-6-(((1-cyclopropyl-1H-1,2,3-triazol-4-yl)(6-(oxetan-3-yl)-4,5,6,7-tetrahydrothieno[2,3-c]pyridin-3-yl)methyl)amino)-4-(neopentylamino)-quinoline-3-carbonitrile] registered an IC50 of 1 nM.

`[2H]C(Nc1cc(Cl)c2ncc(C#N)c(NCC(C)(C)C)c2c1)(c1cn(C2CC2)nn1)c1ccc(F)nc1C` (stereo not drawn) [Example 111, 8-chloro-6-(((1-cyclopropyl-1H-1,2,3-triazol-4-yl)(6-fluoro-2-methylpyridin-3-yl)methyl-d)amino)-4-(neopentylamino)quinoline-3-carbonitrile]: the IC50 worked out at 2 nM.

`[2H]C([2H])(Nc1c(C#N)cnc2c(Cl)cc(N[C@@]([2H])(c3ccc(F)nc3)c3cn(C4CC4)nn3)cc12)C(C)(C)C` [Example 112, (S)-8-chloro-6-(((1-cyclopropyl-1H-1,2,3-triazol-4-yl)(6-fluoropyridin-3-yl)methyl-d)amino)-4-((2,2-dimethylpropyl-1,1-d2)amino)quinoline-3-carbonitrile] registered an IC50 of 2 nM.

The compound `CCN1CCc2c([C@H](Nc3cc(Cl)c4ncc(C#N)c(Nc5ccc(F)c(Cl)c5)c4c3)c3c[nH]nn3)csc2C1` [Example 270, (S)-8-chloro-4-((3-chloro-4-fluoro-phenyl)amino)-6-(((6-ethyl-4,5,6,7-tetrahydrothieno[2,3-c]pyridin-3-yl)(1H-1,2,3-triazol-4-yl)methyl)-amino)quinoline-3-carbonitrile] showed an IC50 of 4 nM.

`Cc1ncccc1[C@H](Nc1cc(Cl)c2ncc(C#N)c(Nc3ccc(F)c(Cl)c3)c2c1)c1cn(C(C)C)nn1` [Example 282, (S)-8-chloro-4-((3-chloro-4-fluorophenyl)amino)-6-(((1-isopropyl-1H-1,2,3-triazol-4-yl)(2-methylpyridin-3-yl)methyl)amino)-quinoline-3-carboni trile] had an IC50 of 3 nM.

Compound `CC(C)n1cc([C@@H](Nc2cc(Cl)c3ncc(C#N)c(Nc4ccc(F)c(Cl)c4)c3c2)c2cncn2C)nn1` [Example 311, (S)-8-chloro-4-((3-chloro-4-fluorophenyl)amino)-6-(((1-isopropyl-1H-1,2,3-triazol-4-yl)(1-methyl-1H-imidazol-5-yl)methyl)amino)quinoline-3-carbonitrile] gave a half-maximal inhibitory concentration (IC50) of 30 nM.

For the compound `N#Cc1cnc2c(Cl)cc(N[C@H](c3cn(C4COC4)nn3)c3cc(Br)cnc3Cl)cc2c1Nc1ccc(F)c(Cl)c1` [Example 320, (S)-6-(((5-bromo-2-chloropyridin-3-yl)(1-(oxetan-3-yl)-1H-1,2,3-triazol-4-yl)methyl)amino)-8-chloro-4-((3-chloro-4-fluorophenyl)amino)quinoline-3-carbonitrile], inhibition was half-maximal at 60 nM (IC50).

`N#Cc1cnc2c(Cl)cc(N[C@H](c3cn(CCO)nn3)c3cnc(Cl)cc3Cl)cc2c1Nc1ccc(F)c(Cl)c1` [Example 330, (S)-8-chloro-4-((3-chloro-4-fluorophenyl)amino)-6-(((4,6-dichloropyridin-3-yl)(1-(2-hydroxy-ethyl)-1H-1,2,3-triazol-4-yl)methyl)-amino)quinoline-3-carbonitrile]: the IC50 was 59 nM.

For the compound `N#Cc1csc([C@H](Nc2cc(Cl)c3ncc(C#N)c(Nc4ccc(F)c(Cl)c4)c3c2)c2cn(CCO)nn2)c1` [Example 333, (R)-8-chloro-4-((3-chloro-4-fluorophenyl)amino)-6-(((4-cyanothiophen-2-yl)(1-(2-hydroxyethyl)-1H-1,2,3-triazol-4-yl)methyl)amino)quinoline-3-carbonitrile], the IC50 came out at 3 nM.

Staying with this assay, now noted: read-out: IC50 HTRF; Cot HTRF (TR-FRET) biochemical assay.
Turning to `CC(C)(C)N1CCC(n2cc([C@@H](Nc3cc(Cl)c4ncc(C#N)c(NC5CCCCC5)c4c3)c3cccnc3)nn2)CC1` [Example 287, (S)-6-(((1-(1-(tert-butyl)piperidin-4-yl)-1H-1,2,3-triazol-4-yl)(pyridin-3-yl)methyl)amino)-8-chloro-4-(cyclohexylamino)quinoline-3-carbonitrile], the IC50 came to 20 nM.

Turning to `CC(C)n1cc([C@@H](Nc2cc(Cl)c3ncc(C#N)c(Nc4ccc(F)c(Cl)c4)c3c2)c2cc(Br)cnc2Cl)nn1` [Example 293, (S)-6-(((5-brorno-2-chloropyridin-3-yl)(1-isopropyl-1H-1,2,3-triazol-4-yl)methyl)amino)-8-chloro-4-((3-chloro-4-fluorophenyl)-amino)quinoline-3-carbonitrile], the IC50 came to 32 nM.

For the compound `N#Cc1csc([C@H](Nc2cc(Cl)c3ncc(C#N)c(Nc4ccc(F)c(Cl)c4)c3c2)c2cn(CCN3CCOCC3)nn2)c1` [Example 332, (R)-8-chloro-4-((3-chloro-4-fluorophenyl)amino)-6-(((4-cyanothiophen-2-yl)(1-(2-morpho-linoethyl)-1H-1,2,3-triazol-4-yl)methyl)amino)quinoline-3-carbonitrile], the 50% inhibitory concentration (IC50) was 65 nM.

A word on the EC50: it is the concentration giving half of the maximal effect. The term IC50 denotes the concentration needed to halve the response being measured.

The record behind these values is US11066414B2, “Cot modulators and methods of use thereof” (Gilead Sciences, Inc., priority 2015, dated 2021).
